Data published in ChEMBL document CHEMBL5325448, “Design, synthesis and biological evaluation of phosphoroxy quinazoline derivatives as potential EGFRT790M/C797S inhibitors” (Bioorg Med Chem, 2023).

Tests used:
[1] = target: Epidermal growth factor receptor (Homo sapiens, UniProt P00533, C797S/EX19DEL/T790M); assay: Inhibition of EGFR Del19/T790M/C797S triple mutant (unknown origin) using TK as substrate incubated for 120 mins in presence of ATP by HTRF assay
[2] = Cytotoxicity against mouse Ba/F3 EGFR-Del19/T790M/C797S cells assessed as cell growth inhibition measured after 72 hrs by CellTiter-Glo luminescent assay; assay type: functional, cell-based
[3] = target: Epidermal growth factor receptor (Homo sapiens, UniProt P00533, C797S/L858R/T790M); assay: Inhibition of EGFR L858R/T790M/C797S triple mutant (unknown origin) using TK as substrate incubated for 120 mins in presence of ATP by HTRF assay
[4] = Cmax in BALB/c mouse at 5 mg/kg, po measured upto 24 hrs by LC-MS/MS analysis; assay type: ADME, organism-based; design: dose 5 mg/kg, time < 24 hrs, route po; details: in vivo
[5] = AUC (0 to t) in BALB/c mouse at 5 mg/kg, po measured upto 24 hrs by LC-MS/MS analysis; assay type: ADME, organism-based; design: time < 24 hrs, dose 5 mg/kg, route po; details: in vivo
[6] = MRT in BALB/c mouse at 5 mg/kg, po measured upto 24 hrs by LC-MS/MS analysis; assay type: ADME, organism-based; details: in vivo
[7] = target: Epidermal growth factor receptor (Homo sapiens, UniProt P00533); assay: Inhibition of wild type EGFR (unknown origin) using TK as substrate incubated for 120 mins in presence of ATP by HTRF assay
[8] = Half life in BALB/c mouse at 5 mg/kg, po measured upto 24 hrs by LC/MS-MS analysis; assay type: ADME, organism-based; details: in vivo
[9] = AUC (0 to infinity) in BALB/c mouse at 5 mg/kg, po measured upto 24 hrs by LC/MS-MS analysis; assay type: ADME, organism-based; design: time < 24 hrs, dose 5 mg/kg, route po; details: in vivo
PC-9 [10] = assay: Antitumor activity against human PC-9 cells harboring EGFR Del19/T790M/C797S triple mutant xenografted in NOD/SCID mouse assessed as tumor growth inhibition at 30 mg/kg, po administered once a day for 21 consecutive days and measured twice a week relative to control; assay type: functional; details: PC-9, 504 h, time 21 day, read-out: TGI
[11] = Antitumor activity against mouse Ba/F3 EGFR-Del19/T790M/C797S cells xenografted in BALB/c nude mouse assessed as tumor growth inhibition at 30 mg/kg, po administered once a day for 14 consecutive days and measured twice a week relative to control; assay type: functional; details: 336 h, time 14 day, read-out: TGI
[12] = Antitumor activity against mouse Ba/F3 EGFR-Del19/T790M/C797S cells xenografted in BALB/c nude mouse assessed as tumor growth inhibition at 15 mg/kg, po administered once a day for 14 consecutive days and measured twice a week relative to control; assay type: functional; details: 336 h, time 14 day, read-out: TGI
PC-9 [13] = assay: Antitumor activity against human PC-9 cells harboring EGFR Del19/T790M/C797S triple mutant xenografted in NOD/SCID mouse assessed as tumor growth inhibition at 15 mg/kg, po administered once a day for 21 consecutive days and measured twice a week relative to control; assay type: functional; details: PC-9, 504 h, time 21 day, read-out: TGI
A-431 = assay: Cytotoxicity against human A-431 cells assessed as cell growth inhibition incubated for 72 hrs by CellTiter-Glo luminescent assay; assay type: functional, cell-based; details: A-431, 72 h

Epidermal growth factor receptor (Homo sapiens, UniProt P00533, C797S/L858R/T790M), sequence (P00533 25-1210 T790M/C797S/L858R limits assumed): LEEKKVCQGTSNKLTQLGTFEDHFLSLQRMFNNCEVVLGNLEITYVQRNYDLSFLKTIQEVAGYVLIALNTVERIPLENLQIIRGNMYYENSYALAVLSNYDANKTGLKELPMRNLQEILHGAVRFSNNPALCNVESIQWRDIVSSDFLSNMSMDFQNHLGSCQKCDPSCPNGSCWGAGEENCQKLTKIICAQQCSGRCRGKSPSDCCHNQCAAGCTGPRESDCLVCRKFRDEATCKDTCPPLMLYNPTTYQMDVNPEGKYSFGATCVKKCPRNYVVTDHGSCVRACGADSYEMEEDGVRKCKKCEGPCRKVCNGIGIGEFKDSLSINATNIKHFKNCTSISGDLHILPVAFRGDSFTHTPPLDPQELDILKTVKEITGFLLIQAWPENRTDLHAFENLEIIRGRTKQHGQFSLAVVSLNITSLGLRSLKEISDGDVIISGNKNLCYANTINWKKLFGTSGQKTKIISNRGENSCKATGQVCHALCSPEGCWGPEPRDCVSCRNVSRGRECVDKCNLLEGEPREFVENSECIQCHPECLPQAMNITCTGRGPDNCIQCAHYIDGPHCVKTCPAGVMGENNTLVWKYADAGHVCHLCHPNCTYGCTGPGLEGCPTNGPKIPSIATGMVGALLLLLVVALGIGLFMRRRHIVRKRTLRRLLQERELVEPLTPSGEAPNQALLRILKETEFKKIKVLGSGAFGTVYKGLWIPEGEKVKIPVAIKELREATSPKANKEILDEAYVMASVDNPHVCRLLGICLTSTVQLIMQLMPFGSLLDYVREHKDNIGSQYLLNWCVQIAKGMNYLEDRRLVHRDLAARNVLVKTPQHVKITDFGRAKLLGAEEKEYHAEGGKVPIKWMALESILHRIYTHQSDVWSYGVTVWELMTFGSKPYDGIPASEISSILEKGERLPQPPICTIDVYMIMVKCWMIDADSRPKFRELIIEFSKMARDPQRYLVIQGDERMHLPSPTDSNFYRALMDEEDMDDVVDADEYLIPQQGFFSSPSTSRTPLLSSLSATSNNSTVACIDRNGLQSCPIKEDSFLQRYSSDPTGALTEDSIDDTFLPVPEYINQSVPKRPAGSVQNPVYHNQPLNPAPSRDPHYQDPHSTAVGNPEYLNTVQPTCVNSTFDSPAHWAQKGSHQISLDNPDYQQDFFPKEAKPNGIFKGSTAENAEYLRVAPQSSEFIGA
Epidermal growth factor receptor (Homo sapiens, UniProt P00533, C797S/EX19DEL/T790M), sequence (P00533 whole entry, looked up, stated change not applied): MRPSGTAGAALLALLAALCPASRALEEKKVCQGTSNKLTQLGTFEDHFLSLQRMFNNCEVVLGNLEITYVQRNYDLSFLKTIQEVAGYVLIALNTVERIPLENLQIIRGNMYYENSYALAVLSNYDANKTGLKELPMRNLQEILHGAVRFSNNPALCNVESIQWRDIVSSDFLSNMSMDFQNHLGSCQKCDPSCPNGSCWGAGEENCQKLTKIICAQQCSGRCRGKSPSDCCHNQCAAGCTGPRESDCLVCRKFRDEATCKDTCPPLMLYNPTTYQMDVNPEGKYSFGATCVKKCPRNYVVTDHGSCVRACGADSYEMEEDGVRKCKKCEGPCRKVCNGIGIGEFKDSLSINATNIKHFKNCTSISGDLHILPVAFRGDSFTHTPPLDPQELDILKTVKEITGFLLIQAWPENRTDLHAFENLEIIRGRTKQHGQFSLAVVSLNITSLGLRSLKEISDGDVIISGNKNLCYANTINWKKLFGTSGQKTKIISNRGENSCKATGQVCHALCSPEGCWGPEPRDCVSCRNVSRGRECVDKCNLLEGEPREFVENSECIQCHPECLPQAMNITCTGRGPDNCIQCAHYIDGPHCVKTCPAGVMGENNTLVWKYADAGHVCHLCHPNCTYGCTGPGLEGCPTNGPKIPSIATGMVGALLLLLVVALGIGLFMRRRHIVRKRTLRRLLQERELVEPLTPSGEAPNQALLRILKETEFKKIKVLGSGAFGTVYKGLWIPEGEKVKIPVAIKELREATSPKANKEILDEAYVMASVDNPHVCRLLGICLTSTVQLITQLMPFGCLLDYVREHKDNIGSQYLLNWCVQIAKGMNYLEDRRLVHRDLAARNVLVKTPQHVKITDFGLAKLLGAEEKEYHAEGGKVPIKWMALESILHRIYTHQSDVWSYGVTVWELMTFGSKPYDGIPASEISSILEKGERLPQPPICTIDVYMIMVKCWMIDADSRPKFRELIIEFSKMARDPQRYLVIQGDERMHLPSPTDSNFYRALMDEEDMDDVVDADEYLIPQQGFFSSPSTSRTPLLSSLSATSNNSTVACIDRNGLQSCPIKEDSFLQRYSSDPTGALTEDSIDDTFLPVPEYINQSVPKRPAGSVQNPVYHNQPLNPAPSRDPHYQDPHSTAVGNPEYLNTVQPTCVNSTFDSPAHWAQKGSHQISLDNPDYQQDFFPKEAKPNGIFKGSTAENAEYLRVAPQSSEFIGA
Epidermal growth factor receptor (Homo sapiens, UniProt P00533), sequence (P00533 whole entry): as the sequence (P00533 whole entry, looked up, stated change not applied) above

| SMILES | IC50 [1] [nM] | IC50 [3] [nM] | IC50 [7] [nM] | IC50 [2] [nM] | also measured |
| --- | --- | --- | --- | --- | --- |
| COc1cc(N2CCC(N3CCN(C(C)=O)CC3)CC2)c(C)cc1Nc1ncc(Br)c(Nc2ccc3nccnc3c2P(C)(C)=O)n1 | 0.07 | 0.12 | 500 | 17.7 | IC50 (A-431): 578 nM |
| COc1cc(N2CCC(N3CC[C@@H](N(C)C)C3)CC2)c(C)cc1Nc1ncc(Br)c(Nc2ccc3nccnc3c2P(C)(C)=O)n1 |  | 0.13 |  | 9 |  |
| COc1cc(N2CCC(N3C[C@H]4COC[C@H]4C3)CC2)c(C)cc1Nc1ncc(Br)c(Nc2ccc3nccnc3c2P(C)(C)=O)n1 |  | 0.12 |  | 11 | Cmax [4]: 1360 ng/mL; IC50 (A-431): 425 nM; AUC(0-t) at 24 h [5]: 11200 ng·h/mL; MRT [6]: 5.6 h; half-life [8]: 3.3 h; AUC(0-inf) [9]: 11200 ng·h/mL |
| CCc1cc(Nc2ncc(Cl)c(Nc3ccc4nccnc4c3P(C)(C)=O)n2)c(OC)cc1N1CCC(N2CC(N(C)C)C2)CC1 | 0.61 | 0.4 | > 500 | 29.7 |  |
| CCc1cc(Nc2ncc(C(F)(F)F)c(Nc3ccc4nccnc4c3P(C)(C)=O)n2)c(OC)cc1N1CCC(N2CC(N(C)C)C2)CC1 |  |  |  | 54 | IC50 (A-431): 547 nM |
| COc1cc(N2CCC(N3CC(N(C)C)C3)CC2)c(C)cc1Nc1ncc(SC)c(Nc2ccc3nccnc3c2P(C)(C)=O)n1 | 0.39 | 0.05 |  | 19.7 |  |
| COc1cc(N2CCC(N3CC(N(C)C)C3)CC2)c(C)cc1Nc1ncc(Cl)c(Nc2ccc3nccnc3c2P(C)(C)=O)n1 | 0.25 | 0.12 |  | 16.3 |  |
| CCc1cc(Nc2ncc(Br)c(Nc3ccc4nccnc4c3P(C)(C)=O)n2)c(OC)cc1N1CCC(N2CC(N(C)C)C2)CC1 | 0.11 |  |  | 16.3 |  |
| COc1cc(N2CCC(N3CCN(C)CC3)CC2)ccc1Nc1ncc(Cl)c(Nc2ccccc2P(C)(C)=O)n1 [BRIGATINIB] |  |  |  | 433 | Cmax [4]: 927 ng/mL; AUC(0-t) at 24 h [5]: 6490 ng·h/mL; half-life [8]: 2.8 h; AUC(0-inf) [9]: 6500 ng·h/mL |
| COc1cc(N2CCC(N(C)CCN(C)C)CC2)c(C)cc1Nc1ncc(Br)c(Nc2ccc3nccnc3c2P(C)(C)=O)n1 | 0.06 | 0.15 |  | 16 | IC50 (A-431): 406 nM |

The next lines start with results.

| IC50 [1] [nM] | IC50 [3] [nM] | IC50 [7] [nM] | SMILES | IC50 [2] [nM] | also measured |
| --- | --- | --- | --- | --- | --- |
| 0.07 | 0.15 |  | COc1cc(N2CCC(N3CC(C(C)(C)O)C3)CC2)c(C)cc1Nc1ncc(Br)c(Nc2ccc3nccnc3c2P(C)(C)=O)n1 | 18 |  |
| 0.33 | 0.12 | 461 | COc1cc(N2CCC(N3CC(CC#N)C3)CC2)c(C)cc1Nc1ncc(Br)c(Nc2ccc3nccnc3c2P(C)(C)=O)n1 | 12.7 | Cmax [4]: 1270 ng/mL; AUC(0-t) at 24 h [5]: 11200 ng·h/mL; MRT [6]: 5.12 h; half-life [8]: 3.1 h; AUC(0-inf) [9]: 11200 ng·h/mL |
| 0.06 |  |  | COc1cc(N2CCC(N3CC(N(C)C)C3)CC2)c(C)cc1Nc1ncc(Br)c(Nc2ccc3nccnc3c2P(C)(C)=O)n1 | 12.7 | inhibition in vivo at 30 mg/kg (PC-9 [10]): 46.8%; inhibition in vivo at 30 mg/kg [11]: 82.6%; Cmax [4]: 1570 ng/mL; inhibition in vivo at 15 mg/kg [12]: 48.4%; inhibition in vivo at 15 mg/kg (PC-9 [13]): 21.6%; AUC(0-t) at 24 h [5]: 15400 ng·h/mL; MRT [6]: 6 h; half-life [8]: 3.5 h; AUC(0-inf) [9]: 15600 ng·h/mL |
| 0.69 | 0.06 |  | COCC1CN(C2CCN(c3cc(OC)c(Nc4ncc(Br)c(Nc5ccc6nccnc6c5P(C)(C)=O)n4)cc3C)CC2)C1 | 15 |  |
| 0.57 | 0.34 | 590 | COc1cc(N2CCC(N3CC(CO)C3)CC2)c(C)cc1Nc1ncc(Br)c(Nc2ccc3nccnc3c2P(C)(C)=O)n1 | 41 |  |
| 0.13 | 0.1 | > 500 | COc1cc(N2CCC(N3CC(F)(CO)C3)CC2)c(C)cc1Nc1ncc(Br)c(Nc2ccc3nccnc3c2P(C)(C)=O)n1 | 18.7 | Cmax [4]: 1730 ng/mL; IC50 (A-431): 808 nM; AUC(0-t) at 24 h [5]: 16900 ng·h/mL; MRT [6]: 6.3 h; half-life [8]: 3.7 h; AUC(0-inf) [9]: 17000 ng·h/mL |
| 0.3 | 0.81 | > 500 | COCC1(C)CN(C2CCN(c3cc(OC)c(Nc4ncc(Br)c(Nc5ccc6nccnc6c5P(C)(C)=O)n4)cc3C)CC2)C1 | 22.3 |  |
| 0.65 |  |  | CCOC1CN(C2CCN(c3cc(OC)c(Nc4ncc(Br)c(Nc5ccc6nccnc6c5P(C)(C)=O)n4)cc3C)CC2)C1 | 29 |  |
| 0.06 | 0.15 |  | COc1cc(N2CCC(N3CC(C)(CO)C3)CC2)c(C)cc1Nc1ncc(Br)c(Nc2ccc3nccnc3c2P(C)(C)=O)n1 | 17.7 |  |
